Series [1] concerns Male Sprague-Dawley rats. As to the kind of experiment: Potentiation of morphine-induced analgesia and morphine-dose sparing, paw pressure test (Example 4). The note with it: for pressure exerted on the hindpaw to obtain withdrawal: BDT001 1 mg/kg, morphine 1.5 mg/kg, mean±S.E.M., 6 animals, saline 250±7.4 g.
Protocol: (§1) Paw pressure test: Mechanical hyperalgesia was measured as the threshold to a noxious mechanical stimulus. […] Briefly, a constantly increasing pressure is applied to the rat hind paw until vocalization occurs. A Basile analgesimeter (Bioseb, France; stylus tip diameter, 1 mm) was used. A 600-g cut-off value was determined to prevent tissue damage.
To evaluate the group effects of treatments, two-way ANOVA with repeated measurements were performed followed by Dunnett's post-hoc test. Newman-Keul's test was used for multiple comparisons between groups. A difference was accepted as significant if the probability that it occurred by chance alone was less than 5% (P<0.05).
The test system of series [2] is Male Sprague-Dawley rats. As to the kind of experiment: Morphine-induced mechanical pain hypersensitivity and latent pain sensitization, paw pressure test (Example 6). As to conditions: morphine 2 mg/kg twice daily for 4 days; observed on D2, back to baseline on D9.
Protocol: Rats were kept under controlled environmental conditions (22° C., 60% relative humidity, 12 h light/dark cycle with lights on at 7:00 A.M., food and water ad libitum). To limit the stress induced by the experimental procedure, the general plan for an experimental phase was as follows: • arrival and housing of the animals: 4 days; • acclimation of the animals for 10 days to the experimental conditions in order to avoid any possibility of measurement bias being induced by stress; • evaluation of nociceptive threshold baseline • repeated opioid administration and evaluation of treatment effects
Mechanical hyperalgesia was measured as the threshold to a noxious mechanical stimulus. […] Briefly, a constantly increasing pressure is applied to the rat hind paw until vocalization occurs. A Basile analgesimeter (Bioseb, France; stylus tip diameter, 1 mm) was used. A 600-g cut-off value was determined to prevent tissue damage.
(§2) Data are presented as mean±S.E.M. To evaluate the time-course effects of treatments and individual group comparisons, one-way and two-way ANOVA with repeated measurements were performed followed by Dunnett's post hoc test. Bonferroni's test was used for multiple comparisons between groups. A difference was accepted as significant if the probability that it occurred by chance alone was less than 5% (P<0.05).
Series [3] concerns Male Sprague-Dawley rats. The series is described as follows: Tolerance to morphine analgesia after chronic morphine treatment, paw pressure test (Example 5). Format: in vivo, rat. As to conditions: morphine 2 mg/kg s.c. twice daily for 4 days, D0 to D4, control animals.
Protocol: Rats were kept under controlled environmental conditions (22° C., 60% relative humidity, 12 h light/dark cycle with lights on at 7:00 A.M., food and water ad libitum). To limit the stress induced by the experimental procedure, the general plan for an experimental phase was as follows: • arrival and housing of the animals: 4 days; • acclimatization of the animals for 10 days to the experimental conditions in order to avoid any possibility of measurement bias being induced by stress; • evaluation of nociceptive threshold baseline • repeated opioid administration and evaluation of treatment effects
as §1
Intrathecal injection was performed via manual lumbar puncture over one minute under anesthesia (isoflurane).
Data are presented as mean±S.E.M. To evaluate the time-course effects of treatments and individual group comparisons, one-way and two-way ANOVA with repeated measurements were performed followed by Dunnett's post hoc test. Bonferroni's test was used for multiple comparisons between groups. […]
The test system of a further series is wild-type (Flt3+/+) mice. The series is described as follows: Mechanical pain hypersensitivity after repeated morphine, von Frey test (Example 3). The note with it: morphine 10 mg/kg twice a day for 4 days, compared to saline.

Protocol for wild-type (Flt3+/+) mice: Experiments were performed in male mice carrying a homozygous deletion of Flt3 (F1t3KO mice)^24 and their littermates (WT) weighing 25-30 g. […] Animals were maintained in a climate-controlled room on a 12 h light/dark cycle and allowed access to food and water ad libitum. To limit the stress induced by the experimental procedure, the general plan for an experimental phase was as follows: • arrival and housing of the animals: 4 days; • evaluation of nociceptive threshold baseline; • repeated opioid administration and evaluation of treatment effects
Filaments were applied perpendicularly to the plantar surface of the paw. The 50% paw withdrawal threshold was determined in grams by the Dixon nonparametric test. The protocol was repeated until three changes in behavior occurred.
as §2

For the molecule `O=C(Nc1cc(Cl)ccc1O)c1cccc(S(=O)(=O)N2CCCCC2)c1` [BDT001, N-(5-chloro-2-hydroxyphenyl)-3-(piperidin-1-ylsulfonyl)benzamide], in the series on Male Sprague-Dawley rats [1] (30 min after administration), the “pressure exerted on the hindpaw to obtain withdrawal” value turned out to be 252.5 ± 9.0 g. The morphine-dose sparing effect in the series with Male Sprague-Dawley rats [1] (BDT001 1 mg/kg i.p.) came to 30%. In the series on Male Sprague-Dawley rats [1] (BDT001 1 mg/kg i.p. alone, 30 min after administration), the analgesia by itself entry is on record as “did not produced analgesia by itself”.
Consider `CN1CC[C@]23c4c5ccc(O)c4O[C@H]2[C@@H](O)C=C[C@H]3[C@H]1C5` [morphine], for which the “nociceptive threshold (pain hypersensitivity) in morphine-treated animals” value with Male Sprague-Dawley rats [2] is listed as “significant decrease in the nociceptive threshold”. The “pressure exerted on the hindpaw to obtain withdrawal” value in the series with Male Sprague-Dawley rats [1] (30 min after administration) came to 502.5 ± 20.0 g. Besides, the “morphine-induced analgesia (area under the curve)” value with Male Sprague-Dawley rats [1] (morphine 0.5, 1, 1.5 or 2 mg/kg s.c. alone) is “induced analgesia in a dose-dependent manner”. Also, in the series with Male Sprague-Dawley rats [3], the “morphine-induced analgesia (percentage of MPE) on repeated morphine administration” value is listed as “induced a progressive decrease in morphine-induced analgesia”. Besides, the “nociceptive threshold (mechanical pain hypersensitivity) after repeated morphine” value with wild-type (Flt3+/+) mice is listed as “induced a decrease in the nociceptive threshold”.
